The text below walks through data of patent US20040142888A1, “Modulators of RabGGT and methods of use thereof” (priority 2002, published 2004).

The subject of the data set is HCT116 cells. The data set is described as follows: 3H-thymidine incorporation (proliferation) assay in HCT116 cells after siRNA treatment against RabGGT subunits. Format: cell-based, human. Set-up: concentration or dose not given beside the values. The note with it: 72 hours after siRNA/Lipofectamine 2000 treatment, average of three replicates. The method, then: HCT-116 human colon tumor cells obtained from the ATCC were grown in RPMI culture medium supplemented with 10% heat inactivated FBS, 1× penicillin/streptomycin, and 25 mM HEPES, in an incubator maintained at 37° C. with CO2 at 6% and humidity at 95%. HCT116 cells were plated in 96 well plates at 2000 cells/100 μl media per well and incubated for 24 hours before RNAi treatment. For treatment, a 2× solution of Lipofectamine 2000/siRNA complexes was generated for each individual siRNA as follows. The siRNA oligonucleotides (Xeragon; Huntsville Ala.) were diluted to a final concentration of 1 μM in Optimem serum-free media (Invitrogen; Carlsbad, Calif.) and incubated for 5 minutes at room temperature. The Lipofectamine 2000 reagent (Invitrogen; Carlsbad, Calif.) was diluted to 10 μg/ml in Optimem serum-free media and incubated for 5 minutes at room temperature. Equal volumes of the 1 μM siRNA oligonucleotides and the 10 μg/ml Lipofectamine 2000 were mixed together, giving a 5× stock of siRNA/Lipofectamine 2000 complexes. After incubation for 20 minutes at room temperature, 1.5 volumes of RPMI medium containing 10% heat inactivated FBS was added to the 5× stock, resulting in a 2× stock of siRNA/Lipofectamine 2000 complexes. For RNAi treatment, 100 μof the 2× stock of siRNA/Lipofectamine 2000 complexes was added to each well containing HCT116 cells, to give a final concentration of 1× siRNA/Lipofectamine 2000 complexes. Cells were incubated for 72 hours prior to the proliferation assay. Three replicates were performed for each siRNA treatment.
The effect of RNAi treatment directed against RabGGT subunits on cellular proliferation was assayed using a 3H-thymidine incorporation assay. The principle of this assay is as follows: During S-phase of the cell cycle, cells incorporate thymidine into the new strand of genomic DNA. Tritiated thymidine can be added to the culture medium and will be incorporated into genomic DNA in proportion to the number of rounds of DNA synthesis that occur. Incorporation can be quantified following lysis of the cells and removal of unincorporated nucleotides. RNAi-treated cells prepared as described above were assayed for 3H-thymidine uptake as follows. The cells were pulsed with 3H-thymidine by addition of 20 μl of a 44 μCi/ml solution of 3H-thymidine in RPMI to each well, to obtain a final concentration of 3H-thymidine of 4 μCi/ml. After incubation for 3 h at 37° C., the medium was removed and 50 μl of 0.25% trypsin in phosphate buffered saline (140 mM NaCl, 2.7 mM KCl, 10 mM Na2HPO4 and 1.8 mM KH2PO4, pH 7.4) was added. After 10 minutes, the contents of the wells were harvested onto a 96-well GF/C filter plate (Whatman; Clifton N.J.) using a Hewlett Packard Filtermate. The filter plate was washed 10 times with distilled water, then left to dry overnight. After the addition of 50 μl of Microscint-20 scintillation fluid (Perkin Elmer; Boston, Mass.) per well, the filter plates were sealed and the amount of radioactivity retained on the filter was determined by scintillation counting. The average of the three replicate samples is reported.
In general terms: Uptake of a labelled nucleoside into DNA is a usual measure of proliferation.
Take “Alpha-1: siRNA against human RabGGT-alpha, coding bases 268-291, SEQ ID NO:01 / NO:02 (chain 1 GGCAGAACUGGGCUUCCUGTT; chain 2 CAGGAAGCCCAGUUCUGCCTT; chemistry not given here)”: the “3H-thy incorp. % of control” value was 33%.
In the case of “Alpha-2: siRNA against human RabGGT-alpha, coding bases 628-651, SEQ ID NO:03 / NO:04 (chain 1 AGAGCUGGAGCUGGUGCAGTT; chain 2 CUGCACCAGCUCCAGCUCUTT; chemistry not given here)”, the “3H-thy incorp. % of control” value turned out to be 17%.
With “Alpha-3: siRNA against human RabGGT-alpha, coding bases 1309-1332, SEQ ID NO:05 / NO:06 (chain 1 GAUGGAGUAUGCCGAGGUGTT; chain 2 CACCUCGGCAUACUCCAUCTT; chemistry not given here)” the figure was 63%; with “Beta-1: siRNA against human RabGGT-beta, coding bases 493-516, SEQ ID NO:07 / NO:08 (chain 1 CUUUGGCUUUGUUGGGGAATT; chain 2 UUCCCCAACAAAGCCAAAGTT; chemistry not given here)”, 77%; with “Beta-2: siRNA against human RabGGT-beta, coding bases 662-685, SEQ ID NO:09 / NO:10 (chain 1 CGACAAUUACCCUCAGGCGTT; chain 2 CGCCUGAGGGUAAUUGUCGTT; chemistry not given here)”, 39%.
“Beta-3: siRNA against human RabGGT-beta, coding bases 812-835, SEQ ID NO:11 / NO:12 (chain 1 GAUGAAGAAACGGGGGGAUTT; chain 2 AUCCCCCCGUUUCUUCAUCTT; chemistry not given here)”: the “3H-thy incorp. % of control” value was 36%.
